Laboratory results from patent publication US8058242B2, “Chimeric proteins with natriuretic activity” (The University of Queensland, priority 2004, dated 2011).
Positions of bridges follow the written chain, without caps; N, C: chain ends. Non-standard residues stand in square brackets, D forms with d. No end group written: not given here. Sec = N[C@@H](C[SeH])C(=O)O; Nle = CCCC[C@H](N)C(=O)O

Tests used:
[1] = test system: denuded aortic rings, GC A receptor; assay: Relaxation of noradrenaline constricted endothelium-denuded aortic rings (Example 11); set-up: species or system rat; conditions: GC-A mediated
Procedure: Male Sprague Dawley rats were killed and the descending thoracic aorta rapidly removed and flushed with physiological solution. After being cleared of adhering fat and connective tissue, 5 mm rings were mounted under 10 g resting tension, between two stainless steel hooks, in organ baths (37° C.) containing carbogenated (95% O2 and 5% CO2) physiological salt solution of the following composition (mM): NaCl, 118.4; NaHCO3, 25; glucose, 11; KCl, 4.7; MgSO4, 1.2; KH2PO4, 1.2 and CaCl2, 2.5. The lower hook was attached to a tissue holder and the upper hook to a force displacement transducer (Grass FTO3). Where indicated endothelial cells were removed by gentle rubbing of the intimal surface with a wire. To confirm the presence or absence of endothelial cells, tissues were precontracted with a sub-maximal concentration of phenylephrine (0.3 μM) and the response to acetylcholine (ACh, 10 μM) observed. Ach-induced relaxation greater than 80% of maximum indicated the presence of endothelium; whereas Ach-induced relaxation less than 10% indicated the absence of endothelium. Ring preparations under resting tension were conditioned by two contraction/relaxation cycles with 40 mM KCl, contracted by a third application of 40 mM KCl and then relaxed with different doses of the venom peptides. Responses were expressed as a percentage relaxation of the precontraction by KCl.
In addition to the peptides tested in example 3, a series of 13 analogs corresponding to the 2a, 2b and 2c grouping of peptides were examined for their ability to dilate noradrenaline constricted aortic rings. The degree of constriction was expressed as a percentage of the KCl induced constriction. The aortic rings were prepared in a manner similar to the method described in example 3. […]. In each case there were at least 3 separate aortic rings tested per peptide and all were denuded of endothelium to ensure responses were confined to the GC A receptor.

conscious rabbits = assay: Blood pressure and heart rate in conscious rabbits, intravenous infusion dose-response (Example 8); conditions: for recovery of MAP, in words: 2 hours after infusion; for MAP at final dose / Recovery (MAP) / Recovery Delta SED (MAP) / Treatment Effect, change of mean blood pressure during the infusion: Table 10B; for Recovery (MAP) / Recovery Delta SED (MAP): after a 2 hour recovery period; for Treatment Effect, change of mean blood pressure during the infusion: final dose, groups 2B and 2C
Plasmin = target: T1, Plasmin (Homo sapiens, UniProt P00747); assay: Stability to enzymatic degradation by plasmin (Examples 7, 16); type: in vitro ADME; conditions: plasmin, 37° C.
T1 construct: with 500 ng Endopeptidase (NEP) or 10 μg Plasmin
Procedure: The incubation buffer contained 100 mM Tris/HCl and 150 mM NaCl and the pH was adjusted to 7.2-7.4. In each assay, 100 μl of peptide [500 μM] was incubated with 300 μl buffer (with 500 ng Endopeptidase (NEP) or 10 μg Plasmin) at 37° C. 50 μl aliquots were taken at times 5 min, 30 min, 60 min, 90 min, 180 min and 24 h. The reaction was quenched by heating to 100° C. for 4 min and the remaining peptide concentrations measured by RP-HPLC. Note that the levels of Plasmin required to degrade these peptides was several thousands time the levels present in human plasma.
The stability of TDT and was investigated using the same enzymatic degradation assays (NEP, plasmin, pepsin) disclosed in Example 7. […] It is also evident that the increased NEP stability cannot be explained by the length of the tail region alone as the NEP cleavage site residues at the N-terminal end of the loop region.

[2] = target: T2, Natriuretic Peptide Receptor-A (NPR-A) signaling in MDCK cells (Canis lupus familiaris, UniProt A0A8I3MHU3); type: cell-based, canine; conditions: stimulation of cGMP accumulation in MDCK cells
T2 sequence (A0A8I3MHU3 32-1060): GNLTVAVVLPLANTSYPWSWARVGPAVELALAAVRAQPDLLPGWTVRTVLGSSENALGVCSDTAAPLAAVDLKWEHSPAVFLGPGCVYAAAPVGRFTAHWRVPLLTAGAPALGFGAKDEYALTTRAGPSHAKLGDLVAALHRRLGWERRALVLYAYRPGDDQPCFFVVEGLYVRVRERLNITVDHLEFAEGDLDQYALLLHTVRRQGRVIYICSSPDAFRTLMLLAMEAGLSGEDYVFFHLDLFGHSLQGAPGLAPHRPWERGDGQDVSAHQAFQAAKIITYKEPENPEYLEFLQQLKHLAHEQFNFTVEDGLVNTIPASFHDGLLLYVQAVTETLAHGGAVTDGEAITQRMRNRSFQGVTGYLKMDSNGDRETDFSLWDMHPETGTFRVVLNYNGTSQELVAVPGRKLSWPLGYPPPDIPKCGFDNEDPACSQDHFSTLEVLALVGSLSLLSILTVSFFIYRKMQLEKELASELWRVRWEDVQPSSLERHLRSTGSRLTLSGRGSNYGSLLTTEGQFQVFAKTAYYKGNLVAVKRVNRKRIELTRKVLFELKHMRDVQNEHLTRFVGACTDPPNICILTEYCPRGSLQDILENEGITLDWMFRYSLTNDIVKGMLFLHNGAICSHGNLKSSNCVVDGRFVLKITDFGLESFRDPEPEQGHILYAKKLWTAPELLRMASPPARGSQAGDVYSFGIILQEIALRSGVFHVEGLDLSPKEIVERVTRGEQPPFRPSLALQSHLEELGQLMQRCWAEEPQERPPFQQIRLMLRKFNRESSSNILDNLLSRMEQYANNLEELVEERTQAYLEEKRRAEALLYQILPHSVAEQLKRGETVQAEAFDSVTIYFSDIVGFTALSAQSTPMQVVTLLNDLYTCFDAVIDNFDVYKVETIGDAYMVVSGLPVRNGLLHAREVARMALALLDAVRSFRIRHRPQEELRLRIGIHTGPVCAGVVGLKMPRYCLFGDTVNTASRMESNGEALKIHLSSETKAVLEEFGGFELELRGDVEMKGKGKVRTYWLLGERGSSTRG

normal rats = assay: Hemodynamic parameters in normal anesthetized rats (Example 10)
[3] = test system: rats with chronic heart failure; assay: Rat model of chronic heart failure, left coronary artery occlusion, anesthetized (Example 10); conditions: HF rats

T1 sequence (P00747 97-580 partner limits assumed, species assumed): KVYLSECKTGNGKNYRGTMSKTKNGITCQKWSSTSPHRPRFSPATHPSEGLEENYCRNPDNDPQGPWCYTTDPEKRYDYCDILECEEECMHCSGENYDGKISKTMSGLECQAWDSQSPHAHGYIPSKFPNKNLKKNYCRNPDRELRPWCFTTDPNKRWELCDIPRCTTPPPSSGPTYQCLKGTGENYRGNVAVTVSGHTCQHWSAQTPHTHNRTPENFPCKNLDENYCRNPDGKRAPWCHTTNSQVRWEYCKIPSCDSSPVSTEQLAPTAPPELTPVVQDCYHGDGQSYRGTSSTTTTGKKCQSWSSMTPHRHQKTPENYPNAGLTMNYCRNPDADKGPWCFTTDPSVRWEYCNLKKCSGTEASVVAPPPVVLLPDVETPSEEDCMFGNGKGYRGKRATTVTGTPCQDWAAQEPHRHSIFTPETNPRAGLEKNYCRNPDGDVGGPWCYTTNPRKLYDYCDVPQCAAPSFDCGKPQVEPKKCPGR
T1 sequence (P00747 581-810 limits assumed, species assumed): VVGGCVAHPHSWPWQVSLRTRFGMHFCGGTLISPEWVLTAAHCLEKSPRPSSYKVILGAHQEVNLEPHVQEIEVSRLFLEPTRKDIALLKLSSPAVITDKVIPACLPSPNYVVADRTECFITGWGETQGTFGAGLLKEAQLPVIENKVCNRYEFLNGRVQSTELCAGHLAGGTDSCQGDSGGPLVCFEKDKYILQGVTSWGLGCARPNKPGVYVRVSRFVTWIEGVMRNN

## SDSKISKGCFGFPLDRIGSVSGLGCNRIMQNPPKKFSGE (A portion of a natriuretic peptide) [TNPc K7S6]
[1]
  Mean relaxation SEM of denuded aortic rings expressed as % of KCl response: 43.8 ± 4.3%
Conscious rabbits
  recovery of MAP, in words: did not recover after 2 hours
  MAP at final dose: 60.3 mm Hg
  Recovery (MAP): 64.2 mm Hg
  Recovery Delta SED (MAP): 3.9 ± 2.6 mm Hg
  Treatment Effect, change of mean blood pressure during the infusion: −12.6 mm Hg

## SDSKIGNGCFGFPLDRIGSVSGLGCNRInQNPPKKFSGE (SDSKIGNGCFGFPLDRIGSVSGLGCNRI[Nle]QNPPKKFSGE; disulfide 9-25 (inferred); ends not checked) [TNPc Nle]
[1]
  Mean relaxation SEM of denuded aortic rings expressed as % of KCl response: 61.0 ± 2.5%
Conscious rabbits
  recovery of MAP, in words: partially recovered
  MAP at final dose: 53.4 mm Hg
  Recovery (MAP): 64.5 mm Hg
  Recovery Delta SED (MAP): 11.0 ± 3.0 mm Hg
  Treatment Effect, change of mean blood pressure during the infusion: −13.6 mm Hg

## SDSKISAGCFGFPLDRIGSVSGLGCNRIMQNPPKKFSGE (A portion of a natriuretic peptide) [TNPc A7S6]
[1]
  Mean relaxation SEM of denuded aortic rings expressed as % of KCl response: 43.1 ± 8.6%
Conscious rabbits
  recovery of MAP, in words: partially recovered
  MAP at final dose: 56.3 mm Hg
  Recovery (MAP): 66.8 mm Hg
  Recovery Delta SED (MAP): 10.5 ± 3.1 mm Hg
  Treatment Effect, change of mean blood pressure during the infusion: −12.9 mm Hg

## SDSKIGNGUFGFPLDRIGSVSGLGUNRIMQNPPKKFSGE (SDSKIGNG[Sec]FGFPLDRIGSVSGLG[Sec]NRIMQNPPKKFSGE; ends and bridges not checked) [TNPc diseleno]
[1]
  Mean relaxation SEM of denuded aortic rings expressed as % of KCl response: 60.5 ± 9.6%
Conscious rabbits
  recovery of MAP, in words: did not recover after 2 hours
  MAP at final dose: 61.0 mm Hg
  Recovery (MAP): 65.8 mm Hg
  Recovery Delta SED (MAP): 4.8 ± 0.3 mm Hg
  Treatment Effect, change of mean blood pressure during the infusion: −12.6 mm Hg

## CC[C@H](C)[C@@H]1NC(=O)[C@H](CCCNC(=N)N)NC(=O)[C@H](CC(=O)O)NC(=O)[C@H](CCSC)NC(=O)[C@H](CCCCN)NC(=O)[C@H](CCCNC(=N)N)NC(=O)CNC(=O)[C@H](Cc2ccccc2)NC(=O)[C@@H](NC(=O)CNC(=O)[C@H](CO)NC(=O)CNC(=O)[C@H](CCC(N)=O)NC(=O)[C@@H](NC(=O)[C@H](CCSC)NC(=O)[C@H](CCCCN)NC(=O)[C@@H]2CCCN2C(=O)[C@@H](N)CO)C(C)C)CSSC[C@@H](C(=O)N[C@@H](CCCCN)C(=O)N[C@H](C(=O)N[C@@H](CC(C)C)C(=O)N[C@@H](CCCNC(=N)N)C(=O)N[C@@H](CCCNC(=N)N)C(=O)N[C@@H](Cc2c[nH]cn2)C(=O)O)C(C)C)NC(=O)CNC(=O)[C@H](CC(C)C)NC(=O)CNC(=O)[C@H](CO)NC(=O)[C@H](CO)NC(=O)[C@H](CO)NC(=O)[C@H](CO)NC1=O [hBNP]
Plasmin; plasmin in Tris/HCl-NaCl buffer, read-out: HalfLife in plasmin
  half-life at 125 μM: 13.1 min
Plasmin
  K (one phase exponential decay, best fit values): 0.053
  PLATEAU (one phase exponential decay, best fit values): 0.03403
  SPAN (one phase exponential decay, best fit values): 0.9926
[2]
  −Log10 EC50 (pEC50) ± Standard Error: 9.165 ± 0.1039
[2]; read-out: EC50 (M) ± Standard Error
  EC50: 9.07e-10 M
Normal rats; 50 pmol/kg/min, 30 min
  Blood Flow, mean change from control: -1.9 mL/min
  Conductance, mean change from control: −1.1 ml/min/mmHg
  Diastolic LVP, mean change from control: −0.1 mmHg
  HCT, mean change from control: 1.0%
  HR, mean change from control: −16.6 BPM
  Mean BP, mean change from control: −6.4 mmHg
  Urine Flow, mean change from control: 0.2 mL/h
Normal rats; 100 pmol/kg/min, 30 min
  Blood Flow, mean change from control: -2.6 mL/min
  Conductance, mean change from control: −1.2 ml/min/mmHg
  Diastolic LVP, mean change from control: 0.1 mmHg
  HCT, mean change from control: 3.5%
  HR, mean change from control: −5.3 BPM
  Mean BP, mean change from control: −14.9 mmHg
  Urine Flow, mean change from control: 0.7 mL/h
Normal rats; Recovery
  Blood Flow, mean change from control: -3.6 mL/min
  Conductance, mean change from control: −1.3 ml/min/mmHg
  Diastolic LVP, mean change from control: −0.2 mmHg
  HCT, mean change from control: −0.3%
  HR, mean change from control: 1.3 BPM
  Mean BP, mean change from control: −14.1 mmHg
  Urine Flow, mean change from control: 0.6 mL/h
Normal rats; average of the two doses
  Blood Flow, Average drug response SED: -2.2 ± 1.0 mL/min
  Conductance, Average drug response SED: −1.1 ± 0.4 ml/min/mmHg
  Diastolic LVP, Average drug response SED: 0.0 ± 0.3 mmHg
  HCT, Average drug response SED: 2.2 ± 0.6%
  HR, Average drug response SED: −10.9 ± 7.1 BPM
  Mean BP, Average drug response SED: −10.7 ± 4.7 mmHg
  Urine Flow, Average drug response SED: 0.5 ± 0.4 mL/h
[3]; 50 pmol/kg/min, 30 min
  Blood Flow, mean change from control: -1.6 mL/min
  Conductance, mean change from control: −0.3 ml/min/mmHg
  Diastolic LVP, mean change from control: −0.7 mmHg
  HCT, mean change from control: 1.9%
  HR, mean change from control: −12.3 bpm
  Mean BP, mean change from control: −9.6 mmHg
  Urine Flow, mean change from control: 0.8 mL/h
[3]; 100 pmol/kg/min, 30 min
  Blood Flow, mean change from control: -2.9 mL/min
  Conductance, mean change from control: 0.2 ml/min/mmHg
  Diastolic LVP, mean change from control: −1.2 mmHg
  HCT, mean change from control: 0.3%
  HR, mean change from control: −40.5 bpm
  Mean BP, mean change from control: −26.5 mmHg
  Urine Flow, mean change from control: 0.7 mL/h
[3]; Recovery
  Blood Flow, mean change from control: -1.0 mL/min
  Conductance, mean change from control: 0.5 ml/min/mmHg
  Diastolic LVP, mean change from control: 1.9 mmHg
  HCT, mean change from control: −1.3%
  HR, mean change from control: −41.7 bpm
  Mean BP, mean change from control: −14.6 mmHg
  Urine Flow, mean change from control: -0.2 mL/h
[3]; average of the two doses
  Blood Flow, Average drug response SED: -2.2 ± 0.4 mL/min
  Conductance, Average drug response SED: −0.1 ± 0.3 ml/min/mmHg
  Diastolic LVP, Average drug response SED: −1.0±1.0 mmHg
  HCT, Average drug response SED: 1.1 ± 0.8%
  HR, Average drug response SED: −26.4 ± 23.0 bpm
  Mean BP, Average drug response SED: −18.1±6.3 mmHg
  Urine Flow, Average drug response SED: 0.7 ± 0.3 mL/h
Conscious rabbits; bolus injection of 0.24 mg/kg TNPc or equivalent molar dose of BNP
  time taken to recover to 50% of the peak response: 80 min
